Reference: patent US20080125432A1 (Devgen NV, priority 2004, published 2008)
Where two headings read alike, the source gives them in different places.

Assays:
[1] = target: T1, human Kv4.3/KChIP2.2 potassium channel (Homo sapiens, UniProt Q9UK17); assay: Whole cell patch clamp, CHO-K1 cells stably expressing human Kv4.3/KChIP2.2; assay type: cell-based; conditions: for IC50: Kv4.3 mediated current, charge, patch clamp, read-out: Kv4.3 charge IC50; for remaining activity at 1 µM: CHO-K1
T1 construct: expressed in transfected cells
T1 sequence (Q9UK17 1-655): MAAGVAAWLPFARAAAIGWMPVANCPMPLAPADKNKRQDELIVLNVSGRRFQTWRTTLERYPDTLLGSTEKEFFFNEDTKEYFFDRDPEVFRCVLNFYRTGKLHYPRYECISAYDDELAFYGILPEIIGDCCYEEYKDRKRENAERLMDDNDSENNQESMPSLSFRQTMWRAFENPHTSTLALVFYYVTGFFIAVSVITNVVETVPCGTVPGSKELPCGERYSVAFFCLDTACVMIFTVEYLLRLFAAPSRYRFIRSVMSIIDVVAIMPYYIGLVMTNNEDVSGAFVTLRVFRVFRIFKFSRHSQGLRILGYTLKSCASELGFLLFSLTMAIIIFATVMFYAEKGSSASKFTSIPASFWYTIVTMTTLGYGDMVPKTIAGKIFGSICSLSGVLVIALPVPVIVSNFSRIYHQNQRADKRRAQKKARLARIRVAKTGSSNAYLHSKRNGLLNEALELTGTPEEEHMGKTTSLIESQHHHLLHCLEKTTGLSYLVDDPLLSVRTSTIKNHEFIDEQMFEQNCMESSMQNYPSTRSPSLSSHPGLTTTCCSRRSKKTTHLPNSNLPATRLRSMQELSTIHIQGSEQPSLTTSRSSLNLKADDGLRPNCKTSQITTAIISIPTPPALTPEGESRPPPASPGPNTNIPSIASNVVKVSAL
Procedure: For this experiment, a recombinant CHO-K1 cell line stably expressing the human Kv4.3/KChIP2.2 potassium channel was used. The cells used for this experiment were kept in continuous culture under standard conditions (37° C., air supplemented with 7% CO2). The CHO-K1 Kv4.3/KChIP2.2 cells were kept in Iscove s modified DMEM (Dulbecco's Modified Eagle's Medium) medium (IMEM) supplemented with 100 U/ml Penicillin, 100 μg/ml Streptomycin, 7% fetal calf serum (FCS), 2.5 μg/ml amphotericin, 400 μg/ml G418, and 400 μg/ml Zeocin™. Cells were passed every 3-4 days after detachment using a Trypsin solution. The quality of the cultured cells was guaranteed by vitality and contamination tests. The culture of the cells was performed as described in protocol D hereunder.
10 mM stock solutions of the compounds were prepared in DMSO. Solutions of the compounds were prepared by dilution of stock solution in bath solution. If the required stock solution volume was theoretically below 1 μl, bath solutions with higher compound concentration were used for dilution. The maximal DMSO concentration during experiments was 0.1% (v/v).
Activity of the human Kv4.3/KChIP2.2 channel was investigated using the patch clamp technique in its whole cell mode. This means that the current needed for clamping the whole cell expressing the K^+-channel protein to a specific potential was measured. Experiments were performed using a patch clamp set-up. Technical equipment needed for manipulation of the cells was placed on a vibration-isolated table and shielded with a Faraday cage to minimize electrical noise. The amplifier and control system were placed in a rack outside the Faraday cage. The system consisted of an EPC9 or EPC10 patch clamp amplifier (HEKA, Lambrecht, Germany), and the perfusion system DADVC8 (ALA Scientific, New York, USA) controlled by the Pulse software package (HEKA, Lambrecht, Germany) installed on a personal computer. The pipettes used for patch clamping were made of borosilicate glass.
Measurements were performed at room temperature (20-25° C.). In each experiment (i.e. each cell) only one concentration of the compounds was investigated no cumulative dosages were performed. Each cell acted as its own control. […]
Between voltage pulses the cell was clamped to a holding potential of −80 mV (inside). The test protocols are illustrated in FIG. 1 and Table 4. The test protocol illustrated in FIG. 1a was used to characterize the properties of the Kv4.3/KChIP2.2 channel and to check the quality of the individual patch clamp experiment (voltage control). […] Each test protocol consisted of 4 segments.
After the whole cell configuration was established a current-voltage curve (IV activation 1; FIG. 1a and Table 4a) was recorded under constant superfusion with bath solution to check for Kv4.3/KChIP2.2 expression and the quality of the individual patch clamp experiment (voltage control). Subsequently, 14 test pulses (series 1; FIG. 1b and Table 4b) were applied at 0.1 Hz under constant superfusion with bath solution. The protocol was initiated by a voltage jump to 100 mV (400 ms) to achieve full inactivation. Then the Kv4.3/KChIP2.2 channels were transferred to the open state by depolarization to +40 mV for 300 milliseconds (activation). Only cells generating current amplitudes between 1 nA and 50 nA were used for the experimental procedure. No or negligible rundown was observed.
Then, 36 test pulses (series 2) were applied at 0.1 Hz under constant superfusion with the compound dissolved in bath solution. Finally, another current-voltage curve was recorded in the presence of the compounds (IV activation 2).
Three different types of analysis were used: Inhibition at the peak current, inhibition of translocated charge and inhibition 75 ms after activation at +40 mV (sustained current). The peak current/charge/current at 75 ms was determined using the online analysis tool of the HEKA pulse software package. […]

Row | Molecule | IC50 [1] [µM] | also measured
1 | COc1ccccc1Nc1nc(C)c(C(=O)NCc2ccccc2)o1 [Compound 221, 2-(2-methoxy-phenylamino)-4-methyl-oxazole-5-carboxylic acid benzylamide] | – | melting point: 125.9 to 130.2 °C
2 | Cc1ccccc1Nc1nc(C)c(C(=O)N[C@@H](C)c2ccc3ccccc3c2)s1 [Compound 32] | 2.55 | –
3 | C[C@@H](NC(=O)c1csc(Nc2ccccc2)n1)c1ccc([N+](=O)[O-])cc1 [Compound 47, 2-phenylamino-thiazole-4-carboxylic acid 1-((R)-4-nitrophenyl-ethyl)-amide] | 1.8 | –
4 | Cc1nc(Nc2ccc(Br)cc2)sc1C(=O)N[C@H]1CCC[C@@H]1OCc1ccccc1 [Compound 26, 2-(4-bromo-phenylamino)-4-methyl-thiazole-5-carboxylic acid (1S,2S)-2-(benzyloxycyclopent-1-yl) amide] | 2.18 | –
5 | Cc1nc(Nc2ccc(F)cc2)sc1C(=O)N[C@H]1CCC[C@@H]1OCc1ccccc1 [Compound 67, 2-(4-fluoro-phenylamino)-4-methyl-thiazole-5-carboxylic acid (1S,2S)-2-(benzyloxycyclopent-1-yl) amide] | 1.97 | –
6 | CCCN(Cc1ccc([N+](=O)[O-])cc1)C(=O)c1sc(Nc2ccc(Br)cc2)nc1C [Compound 28, 2-(4-bromo-phenylamino)-4-methyl-thiazole-5-carboxylic acid (4-nitro-benzyl)-propyl-amide] | 1.06 | –
7 | COc1ccc(CNC(=O)c2sc(Nc3ccc(Br)cc3)nc2C)cc1OC [Compound 61, 2-(4-bromo-phenylamino)-4-methyl-thiazole-5-carboxylic acid 3,4-dimethoxy-benzylamide] | 1.53 | –
8 | Cc1nc(Nc2ccc(Br)cc2)sc1C(=O)NCc1cccnc1 [Compound 58, 2-(4-bromo-phenylamino)-4-methyl-thiazole-5-carboxylic acid (pyridin-3-ylmethyl)-amide] | 4.33 | –
9 | COc1ccccc1Nc1nc(C)c(C(=O)N[C@H]2CCC[C@@H]2OCc2ccccc2)o1 [Compound 210, 2-(2-methoxy-phenylamino)-4-methyl-oxazole-5-carboxylic acid ((1S,2S)-2-benzyloxycyclopent-1-yl) amide] | – | remaining activity at 1 µM ([1]; remaining current measured after application of the compound and relative to the blank, read-out: Kv4.3 charge in %): 86%; remaining activity at 1 µM ([1]; remaining peak height measured after application of the compound and relative to the blank, read-out: Kv4.3 peak in %): 99%
10 | COc1cccc([C@@H](C)NC(=O)c2sc(Nc3ccc(Br)cc3)nc2C)c1 [Compound 21, 2-(4-bromo-phenylamino)-4-methyl-thiazole-5-carboxylic acid (R)-1-(3-methoxyphenyl)ethyl amide] | 1.26 | –
11 | 2-(4-bromo-phenylamino)-4-methyl-thiazole-5-carboxylic acid naphth-1-yl methylamide [Compound 27] | 2.77 | –
12 | COc1ccc(Cl)cc1Nc1nc(C)c(C(=O)N[C@@H]2CCC[C@H]2OCc2ccccc2)s1 [Compound 35, 2-(5-chloro-2-methoxy-phenylamino)-4-methyl-thiazole-5-carboxylic acid (1R,2R)-2-(benzyloxycyclopent-1-yl) amide] | 3.06 | –
13 | Cc1nc(Nc2ccc(Br)cc2)sc1C(=O)NCc1ccncc1 [Compound 57, 2-(4-bromo-phenylamino)-4-methyl-thiazole-5-carboxylic acid (pyridin-4-ylmethyl)-amide] | 11.2 | –
14 | Cc1nc(Nc2ccc(Br)cc2)sc1C(=O)NCc1ccccn1 [Compound 59, 2-(4-bromo-phenylamino)-4-methyl-thiazole-5-carboxylic acid (pyridin-2-ylmethyl)-amide] | 3.06 | –
15 | COc1ccccc1Nc1nc(C)c(C(=O)N[C@H](C)c2ccc3ccccc3c2)s1 [Compound 53, 2-(2-methoxy-phenylamino)-4-methyl-thiazole-5-carboxylic acid (R)-1-(2-naphtalen-2-yl-ethyl)-amide] | 3.95 | –
16 | Cc1nc(N(C)c2ccc(Br)cc2)sc1C(=O)N[C@@H]1CCC[C@H]1OCc1ccccc1 [Compound 29, 2-(4-bromo-phenyl-methylamino)-4-methyl-thiazole-5-carboxylic acid (1R,2R)-2-(benzyloxycyclopent-1-yl) amide] | 2.13 | –
